{
  "source": "patent US20220274983A1",
  "about": "“JAK KINASE INHIBITOR AND USE THEREOF” (JIANGSU CAREPHAR PHARMACEUTICAL CO., LTD., priority 2019, published 2022)",
  "key": {"[1]": {"assay": "Stability of liver microsomes", "type": "in vitro ADME", "conditions": "10 umol/L", "method": "Liver microsomes belonging to different species (human, rat) were respectively reacted with the compound according to the present invention for a certain period of time, and the residual rate was calculated by comparing a reacted sample with an unreacted sample, and the extent to which the compounds according to the present invention were metabolized by the liver was evaluated."}, "[2]": {"target": "T1, humanether-a-go-go related gene (hERG) channels (Homo sapiens, UniProt Q12809)", "T1 construct": "expressed in transfected cells; host or cells: HEK293", "T1 sequence (Q12809 whole entry)": "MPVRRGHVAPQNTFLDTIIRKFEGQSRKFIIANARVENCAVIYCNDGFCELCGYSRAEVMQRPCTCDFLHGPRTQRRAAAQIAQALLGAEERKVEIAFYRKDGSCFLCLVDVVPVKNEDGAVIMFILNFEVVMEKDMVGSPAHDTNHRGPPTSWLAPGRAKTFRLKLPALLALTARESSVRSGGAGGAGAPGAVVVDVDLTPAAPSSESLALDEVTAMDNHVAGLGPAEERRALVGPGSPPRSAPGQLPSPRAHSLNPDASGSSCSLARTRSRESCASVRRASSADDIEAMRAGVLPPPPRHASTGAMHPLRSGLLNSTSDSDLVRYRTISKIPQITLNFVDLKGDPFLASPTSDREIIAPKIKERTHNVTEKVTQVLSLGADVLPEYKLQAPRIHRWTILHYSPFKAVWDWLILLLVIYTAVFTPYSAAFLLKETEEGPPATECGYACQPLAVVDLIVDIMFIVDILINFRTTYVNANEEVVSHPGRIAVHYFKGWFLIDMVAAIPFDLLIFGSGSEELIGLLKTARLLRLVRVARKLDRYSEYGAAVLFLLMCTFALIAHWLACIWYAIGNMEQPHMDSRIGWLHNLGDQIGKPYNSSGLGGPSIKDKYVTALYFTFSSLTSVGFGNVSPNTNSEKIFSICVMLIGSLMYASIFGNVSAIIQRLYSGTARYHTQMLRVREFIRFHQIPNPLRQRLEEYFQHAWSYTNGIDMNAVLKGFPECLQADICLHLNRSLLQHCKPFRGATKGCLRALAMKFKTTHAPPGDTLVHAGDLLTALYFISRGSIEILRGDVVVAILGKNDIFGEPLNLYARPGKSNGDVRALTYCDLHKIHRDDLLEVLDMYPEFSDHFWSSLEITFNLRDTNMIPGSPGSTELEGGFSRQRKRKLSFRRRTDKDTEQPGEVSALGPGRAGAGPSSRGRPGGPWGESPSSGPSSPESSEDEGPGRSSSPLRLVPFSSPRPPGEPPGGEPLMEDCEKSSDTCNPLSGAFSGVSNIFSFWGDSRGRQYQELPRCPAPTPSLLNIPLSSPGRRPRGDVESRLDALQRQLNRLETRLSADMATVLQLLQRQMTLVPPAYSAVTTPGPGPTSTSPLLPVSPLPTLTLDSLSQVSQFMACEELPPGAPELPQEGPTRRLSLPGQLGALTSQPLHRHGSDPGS", "assay": "hERG test, patch clamp in HEK293 cells", "type": "cell-based", "conditions": "HEK293 cells expressing hERG, tail current", "description": "For the purpose of evaluating the risk of prolonged QT interval in ECG of the compound according to the present invention, HEK293 cells expressing humanether-a-go-go related gene (hERG) channels were used to study the effect of the compound according to the present invention on the delayed rectifier K+ current (Ikr) playing an important role in ventricular repolarization.\nThe cells are maintained at −80 mV using a fully automatic patch clamp system (patch clamp PC-505B (WARNER instruments)) through a fully automatic patch clamp method, and then depolarized to 40 mV with a square wave lasting 4 s and hyperpolarized to −40 mV with a square wave lasting 2 s to obtain the hERG tail current. The maximum current induced by the second square wave was detected. After this current was stabilized, the test compound was perfused. After the reaction was stabilized, the blocking strength was calculated.\nExtracellular fluid (mM): NaCl, 137; KCl, 4; CaCl2, 1.8; MgCl2, 1; HEPES, 10; glucose 10; pH 7.4 (NaOH titration). Intracellular fluid (mM): K Aspartate, 130; MgCl2, 5; EGTA 5; HEPES, 10; Tris-ATP 4; pH 7.2 (KOH titration)."}, "[3]": {"tested_on": "Salmonella TA98, TA100, TA1535, TA1537 and Escherichia coli", "assay": "Reverse mutation test (Ames test)", "design": "species or system Salmonella typhimurium", "conditions": "non-metabolic activation conditions and activation conditions (-S9/+S9)", "method": "Salmonella TA98, TA100, TA1535, TA1537 and Escherichia coli were used as test strains (strain source: Molecular Toxicology, Inc.). Ames test was performed under non-metabolic activation conditions and activation conditions to investigate whether the compounds according to the present invention have gene mutation inducing properties.\nThe cryopreserved strains were resuscitated, inoculated into nutrient broth medium and cultured in a 37° C. constant temperature shaker at 100 to 120 rpm for 11 h. The bottom agar medium (containing an appropriate amount of agar, V-B buffer, 20% glucose solution, 20% magnesium sulfate solution) was poured into a dish to cool for later use. […] The cultured plate was removed, counted and compared with the DMSO group for evaluation. If the average number of reverted colonies is twice or more than the number of reverted colonies in the negative control group (which can be regarded as spontaneous reverted number) (TA1535: 3 times or more) and there is a dose-effect relationship, the result is positive, and the test sample can be determined to be a mutagenic agent. […]"}, "rat CIA model": {"tested_on": "rat CIA model", "assay": "Arthritis index (AI) of extremities in rat CIA model;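 on all read-outs here: rats immunized with type II collagen plus complete Freund's adjuvant on day 0, boosted day 7, groups of 8, each paw graded 0-4 for swelling or redness, higher means worse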", "conditions": "CIA rats; for Arthritis index/Day: score 0-16", "procedure": "Lewis rats (female, 10-12 weeks old) were obtained from Beijing Vital River Laboratory Animal Technology Co., Ltd. The rats were on a light and dark alternation for 12 h, and the environment was kept at a temperature of 23±2° C. and a humidity of 40-70%.\nType II collagen solution (2 mg/mL) was prepared with 0.05 M acetic acid solution to allow to be fully dissolved, and placed overnight in the dark at 4° C. During the test, 2 mg/mL type II collagen (C II) solution and 4 mg/mL complete Freund's adjuvant (CFA) solution were mixed in equal volumes under ice bath conditions to fully emulsify. On day 0, an emulsion prepared by mixing equal volumes of C II (2 mg/mL) and CFA (4 mg/mL) was injected intracutaneously into the base of the tail of experimental rats for primary immunization, and on day 7, secondary booster immunization was performed.\nThe therapeutic effect of the test compound was tested in a rat CIA model. The rats were randomly divided into groups with 8 animals in each group. All animals were immunized on day 0 and boosted on day 7.\nFoot volume was scored for the swelling of four toes at the same time, the score for each foot was 0-4, and the highest score for each rat was 16. 0—no swelling, normal appearance; 1—mild swelling or redness of the ankle joint, wrist joint or finger joint; 2—moderate swelling or redness of the ankle joint, wrist joint or finger joint; 3—severe swelling or redness of the ankle joint, wrist joint or finger joint; 4—very severe swelling or redness of the ankle joint, wrist joint or finger joint."}, "Pharmacokinetic study": {"assay": "Pharmacokinetic study", "type": "in vivo", "conditions": "rat, plasma; rats, oral, 1-10 mg/kg", "method": "For the intravenous route and the oral route, the compound was formulated in an aqueous solution containing 5% DMSO+95% hydroxypropyl-β-cyclodextrin. Test animals were administered orally at 1-10 mg/kg and intravenously at 1-5 mg/kg. Each group included 3 rats. About 0.2 mL of blood was collected by jugular vein puncture with heparin sodium anticoagulant at the following time points: 0.083 h, 0.25 h, 0.5 h, 1 h, 2 h, 4 h, 6 h, 8 h, 10 h and 24 h. Plasma was separated by centrifugation at 5000-13000 rpm for 10 min within 1 hour after collecting the blood sample, and the plasma sample was analyzed on LC-MS/MS.\nThe pharmacokinetic parameters were calculated using Phoenix WinNonlin 7.0 based on blood drug concentration data at different time points to provide parameters such as AUC0-t, AUC0-∞, MRT0-∞, Cmax, Tmax, and T1/2."}},
  "data": [
    {"smiles": "O=C(Nc1cn2c(-c3ccc(CN4CCS(=O)(=O)CC4)s3)cccc2n1)[C@H]1C[C@@H]1F", "note": "(relative stereo) [EXP-3, trans-N-[5-[5-[(1,1-dioxo-1,4-thiazin-4-yl)methyl]-2-thiophene]imidazo[1,2-a]pyridin-2-yl]-2-fluoro-cyclopropylcarboxamide]", "values": [
      {"measurement": "residual rate of the compound in oxidative metabolism", "setting": "[1]; human liver microsomes", "value": 59.32, "unit": "%"},
      {"measurement": "residual rate of the compound in oxidative metabolism", "setting": "[1]; rat liver microsomes", "value": 55.3, "unit": "%"},
      {"measurement": "IC50", "setting": "[2]", "value": "> 10", "unit": "µM"},
      {"measurement": "Ames test result", "setting": "[3]", "value": "negative"},
      {"measurement": "Arthritis index/Day", "setting": "rat CIA model; 2 mg/kg oral gavage once daily for 2 w, day 0", "value": "0 ± 0"},
      {"measurement": "Arthritis index/Day", "setting": "rat CIA model; 2 mg/kg oral gavage once daily for 2 w, day 8", "value": "0 ± 0"},
      {"measurement": "Arthritis index/Day", "setting": "rat CIA model; 2 mg/kg oral gavage once daily for 2 w, day 11", "value": "0.50 ± 0.33"},
      {"measurement": "Arthritis index/Day", "setting": "rat CIA model; 2 mg/kg oral gavage once daily for 2 w, day 14", "value": "3.63 ± 0.91"},
      {"measurement": "Arthritis index/Day", "setting": "rat CIA model; 2 mg/kg oral gavage once daily for 2 w, day 17", "value": "6.25 ± 1.36"},
      {"measurement": "Arthritis index/Day", "setting": "rat CIA model; 2 mg/kg oral gavage once daily for 2 w, day 21", "value": "9.00 ± 1.24"},
      {"measurement": "Arthritis index/Day", "setting": "rat CIA model; 2 mg/kg oral gavage once daily for 2 w, day 24", "value": "9.13 ± 1.04"},
      {"measurement": "Arthritis index/Day", "setting": "rat CIA model; 2 mg/kg oral gavage once daily for 2 w, day 28", "value": "8.63 ± 0.63"},
      {"measurement": "Arthritis index/Day", "setting": "rat CIA model; 3 mg/kg oral gavage once daily for 2 w, day 0", "value": "0 ± 0"},
      {"measurement": "Arthritis index/Day", "setting": "rat CIA model; 3 mg/kg oral gavage once daily for 2 w, day 8", "value": "0 ± 0"},
      {"measurement": "Arthritis index/Day", "setting": "rat CIA model; 3 mg/kg oral gavage once daily for 2 w, day 11", "value": "0.38 ± 0.18"},
      {"measurement": "Arthritis index/Day", "setting": "rat CIA model; 3 mg/kg oral gavage once daily for 2 w, day 14", "value": "3.75 ± 0.70"},
      {"measurement": "Arthritis index/Day", "setting": "rat CIA model; 3 mg/kg oral gavage once daily for 2 w, day 17", "value": "6.25 ± 0.75"},
      {"measurement": "Arthritis index/Day", "setting": "rat CIA model; 3 mg/kg oral gavage once daily for 2 w, day 21", "value": "10.25 ± 0.70"},
      {"measurement": "Arthritis index/Day", "setting": "rat CIA model; 3 mg/kg oral gavage once daily for 2 w, day 24", "value": "10.88 ± 0.44"},
      {"measurement": "Arthritis index/Day", "setting": "rat CIA model; 3 mg/kg oral gavage once daily for 2 w, day 28", "value": "9.25 ± 0.45"},
      {"measurement": "Arthritis index/Day", "setting": "rat CIA model; 5 mg/kg oral gavage once daily for 2 w, day 0", "value": "0 ± 0"},
      {"measurement": "Arthritis index/Day", "setting": "rat CIA model; 5 mg/kg oral gavage once daily for 2 w, day 8", "value": "0 ± 0"},
      {"measurement": "Arthritis index/Day", "setting": "rat CIA model; 5 mg/kg oral gavage once daily for 2 w, day 11", "value": "0.63 ± 0.26"},
      {"measurement": "Arthritis index/Day", "setting": "rat CIA model; 5 mg/kg oral gavage once daily for 2 w, day 14", "value": "3.50 ± 0.76"},
      {"measurement": "Arthritis index/Day", "setting": "rat CIA model; 5 mg/kg oral gavage once daily for 2 w, day 17", "value": "5.88 ± 1.22"},
      {"measurement": "Arthritis index/Day", "setting": "rat CIA model; 5 mg/kg oral gavage once daily for 2 w, day 21", "value": "9.00 ± 1.22"},
      {"measurement": "Arthritis index/Day", "setting": "rat CIA model; 5 mg/kg oral gavage once daily for 2 w, day 24", "value": "9.13 ± 1.04"},
      {"measurement": "Arthritis index/Day", "setting": "rat CIA model; 5 mg/kg oral gavage once daily for 2 w, day 28", "value": "8.00 ± 0.65"},
      {"measurement": "arthritis index, relative effect on swelling of the extremities in words", "setting": "rat CIA model; 10 mg/kg", "value": "strongest effect on reducing swelling of the extremities"},
      {"measurement": "Arthritis index/Day", "setting": "rat CIA model; 10 mg/kg oral gavage once daily for 2 w, day 0", "value": "0 ± 0"},
      {"measurement": "Arthritis index/Day", "setting": "rat CIA model; 10 mg/kg oral gavage once daily for 2 w, day 8", "value": "0 ± 0"},
      {"measurement": "Arthritis index/Day", "setting": "rat CIA model; 10 mg/kg oral gavage once daily for 2 w, day 11", "value": "0.38 ± 0.38"},
      {"measurement": "Arthritis index/Day", "setting": "rat CIA model; 10 mg/kg oral gavage once daily for 2 w, day 14", "value": "3.75 ± 0.70"},
      {"measurement": "Arthritis index/Day", "setting": "rat CIA model; 10 mg/kg oral gavage once daily for 2 w, day 17", "value": "5.00 ± 0.89"},
      {"measurement": "Arthritis index/Day", "setting": "rat CIA model; 10 mg/kg oral gavage once daily for 2 w, day 21", "value": "6.50 ± 0.50"},
      {"measurement": "Arthritis index/Day", "setting": "rat CIA model; 10 mg/kg oral gavage once daily for 2 w, day 24", "value": "7.25 ± 0.56"},
      {"measurement": "Arthritis index/Day", "setting": "rat CIA model; 10 mg/kg oral gavage once daily for 2 w, day 28", "value": "7.25 ± 0.41"}
    ]},
    {"smiles": "O=C(Nc1nc2cccc(-c3ccc(CN4CCS(=O)(=O)CC4)s3)n2n1)C1CC1", "note": "[EXP-1]", "values": [
      {"measurement": "AUC", "setting": "Pharmacokinetic study", "value": 12000, "unit": "ng·h/mL"},
      {"measurement": "Cmax", "setting": "Pharmacokinetic study", "value": 2630, "unit": "ng/mL"},
      {"measurement": "half-life", "setting": "Pharmacokinetic study", "value": 161, "unit": "min"}
    ]}
  ]
}
